Data reported in US8501715B2, “Oxidized lipids and uses thereof in the treatment of inflammatory diseases and disorders” (Vascular Biogenics Ltd., priority 2003, dated 2013).

Experiments:
IL12p40 = assay: p40 production by activated BMDC's (ELISA); format: cell-based, mouse; conditions: BMDC's, 1 h pre-incubation, PGN 10 μg/ml, 24 hours; preliminary results
IFN-γ = assay: RT-PCR cytokine expression in the aorta: IFN-γ; format: in vivo; conditions: oral 1 mg/mouse 5 times every other day, 8 weeks after final administration
Experimental: (§1) The effect of ALLE, CI-201, its corresponding acetal derivatives Et-acetal and Me-acetal (Compounds IIa and IIb, FIG. 10) and oxLDL on cytokine expression in the target organ—the aorta—was evaluated using RT-PCR as described hereinabove. […] Oral administrations took place 5 times every other day.

IL-10 = assay: RT-PCR cytokine expression in the aorta: IL-10; format: in vivo, mouse; conditions: oral 1 mg/mouse 5 times every other day, 8 weeks after final administration
Experimental: as §1

Apo-E KO mice [1] = assay: Assessment of atherosclerosis: lesion area in the aortic sinus; format: in vivo, mouse
IL-12 = assay: RT-PCR cytokine expression in the aorta: IL-12; format: in vivo; conditions: oral 1 mg/mouse 5 times every other day, 8 weeks after final administration
Experimental: as §1

Apo-E KO mice [2] = assay: Aorta lesion (% from total area); format: in vivo; conditions: oral 1 mg/mouse, 5 feedings every other day every 4 weeks over 12 weeks; 24.5 week old mice; End
Excerpt: Assessment of Atherosclerosis: Quantification of atherosclerotic fatty streak lesions was done by calculating the lesion size in the aortic sinus as previously described (Paigen et al. Quantitative assessment of atherosclerotic lesions in mice. Atherosclerosis 1987; 68: […]) and by calculating the lesion size in the aorta. Briefly, after perfusion with saline Tris EDTA, the heart and the aorta were removed from the animals and the peripheral fat cleaned carefully. The upper section of the heart was embedded in OCT medium (10.24% w/w polyvinyl alcohol; 4.26% w/w polyethylene glycol; 85.50 w/w nonreactive ingredients) and frozen. […] Sections were evaluated for fatty streak lesions after staining with oil-red O. Lesion areas per section were scored on a grid (Rubin et al. Inhibition of early atherogenesis in transgenic mice by human apoplipoprotein A-I. Nature 1991; 353: 265-267) by an observer counting unidentified, numbered specimens. […]
Their effect on the triglyceride and cholesterol fractions of VLDL was also monitored by FPLC. […]
(§2) Mice were bled prior to feeding (Time 0), after the 2nd set of feeding and at the conclusion of the experiment (End) for determination of lipid profile, lipid fractionation and plasma collection. Atherosclerosis was assessed as described above in the aorta sinus and aorta. […] Weight was recorded every 2 weeks throughout the experiment. […]

[3] = FPLC analysis of triglyceride and cholesterol content of VLDL; format: in vivo; conditions: oral 1 mg/mouse, 3 sets over 12 weeks; measured 9 weeks from t=0; FPLC of pooled blood
Experimental: (§3) 24.5 weeks old Apo-E KO mice were fed 1 mg/mouse L-ALLE (triangle) (n=11), D-ALLE (inverted triangle) (n=9) or POVPC (square) (n=10) every other day for 5 days, at 4 weeks intervals over a 12 weeks period. Control mice were fed an identical volume (0.2 ml) and regimen of PBS (circle) (n=10). Triglyceride content (Tg, mg/ml) was measured 9 weeks from t=0, by enzymatic colorimetric method in the VLDL fractions following separation of pooled blood samples on FPLC, as described in the materials and methods section that follows.
as §3, with “Cholesterol” for “Triglyceride”, “(Cholesterol,” for “(Tg,”
FPLC Analysis: Fast Protein Liquid Chromatography analysis of cholesterol and lipid content of lipoproteins was performed using Superose 6 HR 10/30 column (Amersham Pharmacia Biotech, Inc, Peapack, N.J.) on a FPLC system (Pharmacia LKB. FRAC-200, Pharmacia, Peapack, N.J.). A minimum sample volume of 300 μl (blood pooled from 3 mice was diluted 1:2 and filtered before loading) was required in the sampling vial for the automatic sampler to completely fill the 200 μl sample loop. Fractions 10-40 were collected, each fraction contained 0.5 ml. A 250 μl sample from each fraction was mixed with freshly prepared cholesterol reagent or triglyceride reagent respectively, incubated for 5 minutes at 37° C. and assayed spectrophotometrically at 500 nm.
Their effect on the triglyceride and cholesterol fractions of VLDL was also monitored by FPLC. […] male, 24.5 week old Apo-E KO mice were divided into 5 groups. In group A (n=11) mice were fed with 1 mg/mouse L-ALLE suspended in 0.2 ml PBS, administered by gavage, as described above, every other day for 5 days. In group B (n=9) mice were fed with 1 mg/mouse D-ALLE suspended in 0.2 ml PBS, administered per os, as described above, every other day for 5 days. In group C (n=10) mice were fed with 1 mg/mouse POVPC suspended in 0.2 ml PBS, administered by gavage, as described above, every other day for 5 days. […]
as §2

Compound: CCCCCCCCCCCCCCCCOC[C@H](COP(=O)(O)OCCN)OCCCCC(=O)O [phosphoethanol amine, 1-O-Hexadecyl-2-(4′-carboxybutyl)-sn-Glycero-3-Phosphoethanolamine]
- p40 production / p40 inhibition, structure-function analysis (IL12p40): did not alter the molecule's p40 inhibitory effect

Compound: CCCCCCCCCCCCCCCCOCC(CO)OCCCCC(=O)O (stereo not shown) [non phosphorylated metabolite of CI-201]
- p40 production / p40 inhibition, structure-function analysis (IL12p40): restored p40 production

Compound: 2,5′-Aldehyde Lecithin Ether [ALLE]
- IFN-γ expression in the aorta versus PBS (IFN-γ): Reduced expression levels
- IL-10 expression in the aorta versus PBS (IL-10): elevated levels
- protection from atherogenesis (Apo-E KO mice [1]; ALLE by both oral (1 mg/mouse) and nasal (10 μg/mouse) administrations): approximately 50%
- protection from atherosclerotic lesion formation (Apo-E KO mice [1]; i.p. immunization with ALLE (mixture of D- and L-)): > 50%
- Lesion size (Apo-E KO mice [1]; i.p. immunization x4 every 2 weeks (ALLE 150 μg/mouse coupled to PPD; PPD alone), 4.5 weeks post 4th immunization): 101000 ± 8276 μm^2
- Lesion size (Apo-E KO mice [1]; nasal 10 μg/mouse L-ALLE every other day for 3 days, 8 weeks after last exposure): 82708 ± 10986 μm^2
- Lesion size (Apo-E KO mice [1]; oral 10 μg/mouse L-ALLE+D-ALLE every other day for 5 days, 8 weeks after last feeding): 103889 ± 14320 μm^2
- Lesion size (Apo-E KO mice [1]; oral 1 mg/mouse L-ALLE every other day for 5 days, 8 weeks after last feeding): 76944 ± 17072 μm^2
- Lesion size (Apo-E KO mice [1]; oral 1 mg/mouse L-ALLE+D-ALLE every other day for 5 days, 8 weeks after last feeding): 85278 ± 11633 μm^2
- atherogenesis in Apo-E KO mice, oral administration (summary of earlier examples) (Apo-E KO mice [1]; oral administration): substantially inhibited atherogenesis
- protection from atherosclerosis (Apo-E KO mice [1]; oral administration of ALLE, 10 μg-1 mg/mouse): > 50%
- IL-12 expression in the aorta versus PBS (IL-12): reduced levels

Compound: CCCCCCCCCCCCCCCCOC[C@H](COP(=O)([O-])OCC[N+](C)(C)C)OC(C)=O [PAF, 1-O-Hexadecyl-2-Acetoyl-sn-Glycero-3-Phosphocholine, reference compound]
- p40 production / p40 inhibition, structure-function analysis (IL12p40): efficient in p40 inhibition

Compound: CCCCCCCCCCCCCCCCOC[C@H](COP(=O)([O-])OCC[N+](C)(C)C)OC(=O)CCC [PAF2C, 1-O-Hexadecyl-2-O-Butyroyl-sn-Glycero-3-Phosphocholine, reference compound]
- p40 production / p40 inhibition, structure-function analysis (IL12p40): efficient in p40 inhibition

Compound: C=CCCCCO[C@H](COCCCCCCCCCCCCCCCC)COP(=O)([O-])OCC[N+](C)(C)C [Compound V, 1-Hexadecyl-2-(5′-hexenyl)-sn-glycero-3-phosphocholine]
- atherogenesis progression (Apo-E KO mice [1]; oral 0.1 μg/dose, 3 monthly sets of 5 administrations): did not effect atherogenesis progression
- Sinus Lesion (Apo-E KO mice [1]; oral 0.1 μg/dose, 3 monthly sets of 5 administrations, 12 weeks, 23-26 weeks old mice, no statistical difference to PBS): 238000 ± 32200 µm²
- Sinus Lesion (Apo-E KO mice [1]; oral 0.2 mg/mouse every other day for 5 days, 8 weeks after last administration): 334622 ± 26100 μm^2
- Sinus Lesion (Apo-E KO mice [1]; oral 1 mg/mouse every other day for 5 days, 8 weeks after last administration): 361166 ± 24068 μm^2
- Sinus Lesion (Apo-E KO mice [1]; oral 5 mg/mouse every other day for 5 days, 8 weeks after last administration): 307291 ± 22689 μm^2
- effect on atherogenesis (Apo-E KO mice [1]; oral 0.2-5 mg/mouse every other day for 5 days): no effect

Compound: CCCCCCCCCCCCCCCCOCC(COP(=O)([O-])OCC[N+](C)(C)C)OCCCCC(=O)OC (stereo not shown) [methyl ester of CI-201]
- p40 production / p40 inhibition, structure-function analysis (IL12p40): restored p40 production

Compound: CCCCCCCCCCCCCCCCOC[C@H](COP(=O)([O-])OCC[N+](C)(C)C)OCCCCC=O [D-ALLE, 1-hexadecyl-2-(5′-oxo-pentanyl)-sn-glycero-3-phosphocholine]
- Aorta lesion (% from total area) (Apo-E KO mice [2]): 4.5 % from total area
- Sinus Lesion (Apo-E KO mice [1]; oral 1 mg/mouse, 5 feedings every other day every 4 weeks over 12 weeks, 24.5 week old mice, End (12 weeks after first feeding)): 245938 ± 20474 μm^2
- protection from atheromatous progression (Apo-E KO mice [1]; oral 1 mg/mouse, late stage, compared with lesion scores at 24.5 weeks): nearly complete protection
- cholesterol content of VLDL [3]: reduction
- triglyceride content of VLDL [3]: reduction
